Reference: patent publication US20260167637A1, “NLRP3 INFLAMMASOME INHIBITOR AND USE THEREOF” (TransThera Sciences (Nanjing), Inc., priority 2022, published 2026)
Where two headings read alike, the source gives them in different places.

Test: Pharmacokinetic study in male SD rats
Format: in vivo
Details: rat, plasma; for clearance: read-out: Cl—obs iv (clearance rate) (converted); for Vd: read-out: Vss iv (distribution volume); for bioavailability: po 5 mg/kg vs iv 1 mg/kg, read-out: F% (absolute bioavailability); for Tmax: median, read-out: Tmax po (time to peak plasma concentration); for Cmax: read-out: Cmax po (peak concentration)
Protocol: Experimental Example 4: Pharmacokinetic Study of Compounds in Male SD Rats
(§1) The compounds were prepared into solutions using a mixed vehicle composed of 5% dimethyl sulfoxide, 20% (30% solutol), and 75% normal saline. The compound solutions were intragastrically administered to male SD rats at a dose of 5.0 mg/kg, and the blood collection time points were: 15 min, 30 min, 1 h, 2 h, 4 h, 6 h, 8 h, 10 h, and 24 h.
as §1, with “intravenously injected into” for “intragastrically administered to”, “1.0” for “5.0”, “were: 5 min,” for “were:”, “4h,” for “4 h,”, “8h,” for “8 h,”
Intravenous catheterization was performed on the animals the day before the administration. After the administration, blood samples of about 300 μL were collected from the jugular vein and placed into anticoagulation tubes containing EDTA-K2. The blood samples were centrifuged at 5000 rpm at 4° C. for 10 min to give plasma samples. The plasma samples were prepared within 30 min after blood collection. The plasma samples were stored in a −80° C. freezer before testing.

[1] = iv 1 mg/kg, read-out: AUClast iv (0-24 h)
[2] = iv 1 mg/kg, read-out: tz1/2 iv (terminal half-life) (converted)
[3] = po 5 mg/kg, read-out: AUClast po (0-24 h)
[4] = po 5 mg/kg, read-out: tz1/2 po (terminal half-life) (converted)

Row | AUC(0-t) [1] [ng·h/mL] | clearance (iv 1 mg/kg) [mL/min/kg] | Vd (iv 1 mg/kg) [L/kg] | half-life [2] [h] | bioavailability [%] | Tmax (po 5 mg/kg) [h] | AUC(0-t) [3] [ng·h/mL] | Cmax (po 5 mg/kg) [ng/mL] | half-life [4] [h] | Compound
1 | 1860 | 7.95 | 2.15 | 3.24 | 81 | 0.5 | 8480 | 1260 | 3.54 | C#Cc1ccc(-c2nnc(N[C@@H]3CCCN(C)C3)c(=O)n2C)c(O)c1 [Compound 23, (R)-3-(4-ethynyl-2-hydoxyphenyl)-4-methyl-6-((1-methylpiperidin-3-yl)amino)-1,2,4-triazin-5(4H)-one]
2 | 1920 | 8.38 | 3.28 | 5.63 | 71.5 | 4 | 6840 | 629 | 5.19 | C#Cc1ccc(-c2nnc(N[C@@H]3CCCN(CCO)C3)cc2C2CC2)c(O)c1 [Compound 45, (R)-2-(4-Cyclopropyl-6-((1-(2-hydroxyethyl)piperidin-3-yl)amino)pyridazin-3-yl)-5-ethynylphenol]
